# Data: patent publication US6939990B2, “Derivatives of dicarboxylic acid having pharmaceutical properties” (Bayer Aktiengesellschaft, priority 2001, dated 2005)
# Where a name gives a salt, the structure may show the parent alone.
# Columns and labels:
# arteria saphena rings = assay: Vasorelaxant effect in vitro (phenylephrine-contracted arteria saphena rings); type: cell-based, Rabbits; details: Oryctolagus cuniculus; rabbit arteria saphena rings, contractions generated by phenylephrine, 0.1% DMSO; read-out: IC50, concentration necessary to reduce the height of the contraction of the control value by 50%
# Method: Vasorelaxant Effect In Vitro
# Rabbits are anesthetized or killed by intravenous injection of thiopental sodium (about 50 mg/kg) and exsanguinated. The arteria saphena is removed and divided into rings 3 mm wide. The individual rings are in each case mounted on a pair of hooks of triangular shape, open at the end and made of special wire (Remanium®) having a diameter of 0.3 mm. Under pretension, each ring is introduced into a 5 ml organ bath containing carbogen-gassed Krebs-Henseleit solution at 37° C. with the following composition (mM): NaCl: 119; KCl: 4.8; CaCl2×2H2O: 1; MgSO4×7H2O: 1.4; KH2PO4: 1.2; NaHCO3: 25; glucose: 10; bovine serum albumin: 0.001%. The force of contraction is detected with Statham UC2 cells, amplified and digitized via A/D converters (DAS-1802 HC, Keithley Instruments, Munich) and recorded in parallel on chart recorders. Contractions are generated by adding phenylephrine.
# After several (generally 4) control cycles, the substance to be investigated is added in each further run in increasing dosage in each case, and the height of the contraction reached under the influence of the test substance is compared with the height of the contraction reached in the last preceding run. The concentration necessary to reduce the height of the control value by 50% (IC50) is calculated from this. The standard application volume is 5 μl. The DMSO content in the bath solution corresponds to 0.1%.
IC50 (arteria saphena rings) [nM],melting point [°C],Structure (SMILES)
0.4,> 250,"O=C(O)CCCCN(CCc1cc(F)ccc1COc1ccc(C2CCCCC2)cc1)Cc1ccc(C(=O)O)cc1 [Example 12, 4-{[(4-Carboxybutyl)(2-{2-[(4-cyclohexylphenoxy)methyl]-5-fluorophenyl}ethyl)amino]methyl}benzoic acid]"
0.26,–,O=C(O)CCCCN(CCc1cc(F)ccc1COc1ccc(-c2ccc(C(F)(F)F)cc2)cc1)Cc1ccc(C(=O)O)cc1 [Example 17]

# The next lines start with the molecule.
Structure (SMILES),IC50 (arteria saphena rings) [nM],melting point [°C]
"O=C(O)CCCCN(CCc1ccccc1OC(F)(F)c1ccc(-c2ccc(C(F)(F)F)cc2)cc1)Cc1ccc(C(=O)O)cc1 [Example 6, 4-({(4-Carboxybutyl)[2-(2-{difluoro[4′-(trifluoromethyl)-1,1′-biphenyl-4-yl]methoxy}phenyl)ethyl]amino}methyl)benzoic acid]",0.041,–
"O=C(O)CCCCN(Cc1ccc(C(=O)O)cc1)Cc1cccc(Oc2ccc(C3CCCCC3)cc2)c1 [Example 3, 4-({(4-Carboxybutyl)[3-(4-cyclohexylphenoxy)benzyl]amino}methyl)-benzoic acid hydrochloride]",36,–
O=C(O)CCCCN(Cc1ccc(C(=O)O)cc1)Cc1cccc(Oc2ccc(-c3ccc(C(F)(F)F)cc3)cc2)c1 [Example 2],55,–
